The record followed here is patent US20240425805A1, “CELL CULTURE METHODS” (INTERNATIONAL N&H DENMARK APS, priority 2021, published 2024).

The subject of assay [1] is Bifidobacterium animalis. The assay can be described thus: Growth of B. animalis in MRS media, OD600 plate reader. The note with it: 24 hrs. In kind it is cell-based. As to the method: MRS media was inoculated with 1% overnight grown culture of Bifidobacterium animalis. Cells were grown with the addition of 5 mM ATP (Sigma) or 100 nM potato apyrase (ATPase; Sigma catalog #A6535). Experiments were performed in volumes of 200 μl per well in standard microtiter plates. Growth was assessed via Synergy HTX multi-mode plate reader (Bio Tek Instruments) at OD600 every 30 minutes for 24 hrs. Each plate was incubated at 37° C. and shaken once every 30 mins just before the reading.
MRS media was inoculated with 1% over night grown culture of B. animalis. Cells were grown with 100 nM potato apyrase (ATPase) or heat-treated (95° C. for 10 mins) 100 nM potato apyrase. Experiments were performed in volumes of 200 μl per well in standard microtiter plates. Growth was assessed via plate reader at OD600 every 30 minutes.

For another assay, the system named is Akkermansia sp. The experiment in a line: Effect of ATP and ATPase on growth (OD600), Table 1. In kind it is cell-based. Conditions: YCFAC + Mucin media; 5 mM ATP; 37° C. anaerobically, 48 hours. How it is done: (§1) Different growth media were inoculated with 1% over night grown culture of various bacterial and yeast species (as detailed in Table 1). Cells were grown in the presence of 5 mM exogenously-added ATP or 100 nM potato apyrase or bovine alkaline phosphatase (ATPase). Experiments were done in volumes of 200 μl per well in standard microtiter plates. Growth was assessed via plate reader at OD600 every 30 minutes for 48 hours. All the experiments were done at 37° C. anaerobically except for yeast strain Kazachstania unispora where cells were grown aerobically at 28° C.

The subject of assay [2] is Bacillus amyloliquefaciens. The assay is described as above. The note with it: TSA media; 5 mM ATP; 37° C. anaerobically, 48 hours. Format: cell-based. How it is done:
as §1

Another assay deals with Bifidobacterium Infantis. Described as above. Format: cell-based. The note with it: MRS media; 5 mM ATP; 37° C. anaerobically, 48 hours. How it is done:
as §1

Assay [3] relates to Bifidobacterium animalis. The description is as above. Format: cell-based. The note with it: MRS media; 5 mM ATP; 37° C. anaerobically, 48 hours. As to the method: as §1
For the next assay, the system named is Bifidobacterium lactis. Described as above. Format: cell-based. The note with it: MRS media; 5 mM ATP; 37° C. anaerobically, 48 hours. As to the method:
as §1

For a further assay, the system named is Bifidobacterium longum. The assay is described as above. Format: cell-based. Conditions: BHI media; 5 mM ATP; 37° C. anaerobically, 48 hours. As to the method: as §1
The test system of another assay is Kazachstania unispora. The assay is described as above. Format: cell-based. The note with it: YM media; 5 mM ATP; aerobically at 28° C., 48 hours. How it is done:
as §1

The test system of a further assay is Lactobacillus crispatus. The description is as above. The note with it: MRS media; 5 mM ATP; 37° C. anaerobically, 48 hours. Format: cell-based. As to the method: as §1
For the next assay, the system named is Lactobacillus rhamnosus. The assay is described as above. The note with it: 5 mM ATP, 37° C. anaerobically, 48 hours. In kind it is cell-based. How it is done: as §1
The subject of a further assay is Oscillibacter sp. Described as above. Format: cell-based. Conditions: YCFAC media; 5 mM ATP; 37° C. anaerobically, 48 hours. How it is done: as §1
In a further assay the test system is Prevotella copri. The assay is described as above. In kind it is cell-based. Conditions: TSA media; 5 mM ATP; 37° C. anaerobically, 48 hours. How it is done:
as §1

Assay [4] relates to B. animalis subsp. lactis 420. The assay can be described thus: eATP in culture supernatants, Luciferase Reporter Assay. In kind it is cell-based. Conditions: 100 nM potato apyrase; MRS, 37° C. anaerobic; 0, 7 and 13 hr. As to the method:
MRS media was inoculated with 1% overnight grown culture of B. animalis subsp. lactis 420. Cells were grown at 37° C. under anaerobic conditions with and without potato apyrase. Potato apyrase was used at 100 nM. 200 μl of the sample was collected at different time points. Cells were harvested by centrifugation at 5000 rpm for 5 mins. Supernatants were used to estimate nanomolar ATP using a Luciferase® Reporter Assay System (Promega).
ATP measurements were performed on supernatants collected at 0, 7 and 13 hr time points.
For orientation: A reporter such as luciferase makes a cellular process visible.

The test system of a further assay is CHO wild-type cell line. The experiment in a line: CHO cell growth in suspension, trypan blue cell count. The note with it: for increase in CHO cell numbers: 10 nM ATPase, after 60 hrs of growth in suspension. Format: cell-based, Chinese hamster. An excerpt:
(§2) The growth effect of exogenously added ATPase enzymes was examined on established mammalian (Chinese hamster ovary (CHO)) cell lines. CHO wild-type cell line was purchased from Creative Biogene (NY, USA) Cat No. CSC-C3064, and CHO cell line constitutively expressing Green Fluorescent Protein (CHO-GFP) was purchased from GenTarget, Inc (San Diego, CA, USA) Cat No. SC039-Puro. Wild type CHO cell line was maintained in CD OptiCHO™ (ThermoFisher) medium for growth in suspension. GFP expressing CHO cell line was maintained in RPMI 1640 media (ThermoFisher) for adherent growth. Cell lines were cultured in a humidified incubation chamber at 37° C. with 5% CO2.
To measure the effect on CHO cells in suspension, cultures were seeded onto the wells of 6-well plates at 1×10^4 cells per well and incubated for 12 hours. Subsequently, ATPase (potato apyrase or bacterial enzyme CRC22110 (SEQ ID NO:1)) were added to the wells at 10 nM final concentration and incubated for an additional 48 hours. The potato apyrase (Cat No. A6410) and, was sourced from Sigma. The recombinant CRC22110 (SEQ ID NO: 1) enzyme was purified from Bacillus cultures using chromatography methods known in the art. After a total of 60 hours in culture, cells were detached by trypsin treatment, stained with trypan blue and counted in a Countess 3 FL system (Invitrogen). Data on FIG. 4 show the effect of ATPase on CHO cell growth.

The next assay relates to CHO-GFP cell line. The assay can be described thus: GFP expression of CHO-GFP cell line in adherent culture, fluorescence imaging. In kind it is cell-based, Chinese hamster. Conditions: 10 nM ATPase; imaged after 60 hrs.
Excerpt: as §2
To study the effect of exogenous ATPase on recombinant protein expression by mammalian cells, the CHO-GFP cell line was used. CHO-GFP cells were seeded onto the wells of 6-well plates at 1×10^4 cells per well and incubated for 12 hours. Subsequently, ATPase (potato Apyrase or bacterial enzyme CRC22110) were added to the wells at 10 nM final concentration and cells were incubated for an additional 48 hours For GFP expression visualization, cells were imaged after 60 hrs of incubation with ATPase by using Invitrogen™ EVOS™ FL Imaging System. […] The number of cells displaying fluorescence signal and the amount of fluorescence are both increased in the cultures grown with exogenous ATPases, potato apyrase or CRC22110.

With `Nc1ncnc2c1ncn2[C@@H]1O[C@H](COP(=O)(O)OP(=O)(O)OP(=O)(O)O)[C@@H](O)[C@H]1O` [ATP, Adenosine triphosphate], in the assay on Bifidobacterium animalis [1] (5 mM exogenously added ATP, 37° C.), the “cellular growth (OD600)” value is listed as “supressed”. Besides, the “Sensitivity to ATP” value (in the assay with Akkermansia sp; in assay [2]; with Bifidobacterium Infantis; in the assay with Bifidobacterium animalis [3]; with Bifidobacterium lactis; in the assay with Bifidobacterium longum) was “YES” each time. Besides, the “Sensitivity to ATP” value in the assay with Kazachstania unispora, in the assay with Lactobacillus crispatus, in the assay with Lactobacillus rhamnosus (BHI media), in the assay on Lactobacillus rhamnosus (MRS media), in the assay on Oscillibacter sp and in the assay with Prevotella copri was “YES” in each case.

B1: potato apyrase: potato apyrase (ATPase; Sigma), EC 3.6.1.5; SEQ ID NO: 3, predicted mature SEQ ID NO: 4 (protein, listed as Solanum tuberosum)
chain: KNVNAQIPLRRHLLSHESEHYAVIFDAGSTGSRVHVFRFDEKLGLLPIGNNIEYFMATEPGLSSYAEDPKAAANSLEPLLDGAEGVVPQELQSETPLELGATAGLRMLKGDAAEKILQAVRNLVKNQSTFHSKDQWVTILDGTQEGSYMWAAINYLLGNLGKDYKSTTATIDLGGGSVQMAYAISNEQFAKAPQNEDGEPYVQQKHLMSKDYNLYVHSYLNYGQLAGRAEIFKASRNESNPCALEGCDGYYSYGGVDYKVKAPKKGSSWKRCRRLTRHALKINAKCNIEECTFNGVWNGGGGDGQKNIHASSFFYDIGAQVGIVDTKFPSALAKPIQYLNAAKVACQTNVADIKSIFPKTQDRNIPYLCMDLIYEYTLLVDGFGLNPHKEITVIHDVQYKNYLVGAAWPLGCAIDLVSSTTNKIRVASS
Consider B1, for which the “growth (OD600) versus cells-only control” value with Bifidobacterium animalis [1] (100 nM potato apyrase alone) is reported as “grew better than the cells-only control”. In addition, the “growth (OD600) in the presence of exogenously-added ATP” value in the assay with Bifidobacterium animalis [1] (100 nM potato apyrase plus 5 mM ATP) is on record as “negated the growth inhibitory effect of exogenously-added ATP”. For the same molecule, in assay [4], the “ATP accumulation in culture supernatant” value was “did not exhibit ATP accumulation” and the “nanomolar ATP over time in culture supernatant” value is reported as “decrease”. The “increase in CHO cell numbers” value with CHO wild-type cell line is given as 3 fold. Moreover, the “number of viable cells in culture (trypan blue exclusion)” value in the assay with CHO wild-type cell line (10 nM potato apyrase, 60 hours in culture) is listed as “improves the number of viable cells in culture”. In addition, in the assay on CHO-GFP cell line, the “amount of fluorescence (GFP)” value is “increased” and the “number of cells displaying fluorescence signal (GFP)” value is “increased”.

B2: CRC22110: recombinant bacterial enzyme CRC22110 (SEQ ID NO:1), Gallaecimonas xiamenensis 3-C-1, purified from Bacillus cultures (protein, listed as Gallaecimonas xiamenensis)
chain: ADKPACRAVFDAGSSGTRLFLYVQQEGGWQPWPGAKLGALADPVRQHQGPKAMAALAADLANSLEALRQDGPTNSEGQPRWQGFDWQQACRLQSVSVLATAGMRLAEQQDPVASVALWQEVQQALAGLLGPAVAIDARTLTGFEEGFYAWLAARARLGRSDMGIVEMGGASSQVAFPCPACDRADDAVQQVRLEGQTLDFYSYSFLGLGQDEAPKVLGVPHACRYGAGVKDPNWQLGQCQAQLPLTLGRALKDPYNFQGQGQGGYRQVPTEKAGVKDWLLTGAFQYNTPDQLDSCCLNQGQCYQPSTACFRVAYLPLYLDSLGVDPHSPDLDVSWTLGAVLCRNEQCLAPSKPPCRWRKAGCLAPSVGDGRPEGRPGQQPGGVQHRQH
Regarding B2, in the assay on CHO wild-type cell line, the “increase in CHO cell numbers” value worked out at 3 fold. Also, in the assay with CHO-GFP cell line, the “amount of fluorescence (GFP)” value is “increased” and the “number of cells displaying fluorescence signal (GFP)” value is “increased”.
